Measurements: patent US10844102B2, “Peptides, compositions, and methods for stimulating subcutaneous adipogenesis” (The Regents of the University of California, priority 2014, dated 2020)
Where two headings read alike, the source gives them in different places.

Columns and labels:
[1] = system: bone marrow mesenchymal stem cells; assay: Adipogenesis in mesenchymal stem cells or papillary fibroblasts, replacement of insulin; assay type: cell-based; settings: depending upon the screening assay used
Protocol: For example, in bone marrow mesenchymal stem cells, a maximum adipogenic effect was obtained at 1-5 μg of peptide B (SEQ ID NO: 2), depending upon the screening assay used.

dermis of aged rats = assay: Rat dermal skin model of adipogenesis (injection into the dermis of aged rats); assay type: in vivo; settings: for adipogenic effects in rat skin: injected into the dermis of aged rats / rat skin
pre-adipocyte stem cells = assay: Adipogenic effects in pre-adipocyte stem cells in culture; assay type: cell-based
adipogenesis [2] = settings: earlier reports, WO 2014/082042 and background; cited from earlier work
nude guinea pig = assay: Nude guinea pig model of adipogenesis; settings: in vivo
[3] = system: mammary fat pads of aged female rats; assay: In vivo adipogenesis in mammary fat pads of aged female rats (microCT); parameters: species or system rat; settings: eight-month-old female rats, 100 μg peptide in 100 μl collagen gel, 7 days, versus collagen only
Protocol: Peptides were also tested for their ability to stimulate adipogenesis in mammary fat pads of aged (8 month old) female rats in vivo. Mammary fat pads are rich in adipocyte progenitor cells.
Eight-month-old female Sprague Dawley rats (retired breeders) were injected with 100 μl collagen gel (Vitrogen) containing 100 μg peptide into the fourth right mammary fat pad, as depicted in FIG. 10. […] The collagen and peptides were injected at the top of the ROI nearest the nipple. The collagen and peptide diffuse into the fat pad following injection and active peptides target RHAMM-positive progenitor cells present in the fat pad. Collagen alone was injected into the fourth left mammary fat pad as a negative control.
Following injection of the collagen and peptide or collagen alone, animals were maintained on rat chow and water for 7 days and then euthanized. Micro-computed tomography (microCT) imaging of the […] was performed on animals using a Locus Ultra scanner (GE Healthcare, London, ON, Canada). The animals were imaged ex vivo with an X-ray tube voltage of 80 kV and a tube current of 55 mA. Nine hundred projections of data were acquired at an angular increment of 0.4 degrees around the rat in an exposure time of 16 ms. The data were then reconstructed into a 3D volume image with a voxel size of 154 μm. The subcutaneous mammary fat measured in 10×5×3 mm rectangular area (the region of interest (ROI)) below the nipple, avoiding measurement of underlying visceral fat (see the region labeled “fat pad” in FIG. 11). The amount of fat in the ROI was calculated as mass (mg) per ROI.

adipogenesis [4] = assay: Adipogenic activity of peptides and peptide fragments, assay not specified; assay type: cell-based
Protocol: In the second approach, a series of truncations and alanine mutagenesis on peptide B were performed in order to identify the smallest active sequence. Fragments of peptide B were prepared and assayed for adipogenesis. First, fragments corresponding to the two halves of peptide B were prepared (KLKDENS (SEQ ID NO: 8) and SQLKSEVSK (SEQ ID NO: 13)).

[5] = Hyaluronan binding (random phage library screen); settings: unbiased screen of 15-mer random phage libraries
Protocol: Two approaches were used to identify additional adipogenic peptides and to identify the key adipogenic sequences. […] Thus, in the first approach, an unbiased screen was performed to identify hyaluronan-binding peptides using 15-mer random phage libraries. Peptide sequences identified in this screen were sorted for: (a) their alignment to the HA binding region of RHAMM, and (b) their lack of alignment to the HA binding region of CD44.

adipogenesis in vivo = assay: Adipogenesis in vivo, model not specified
[6] = earlier reports, background and U.S. Pat. No. 6,271,344; cited from earlier work

Sequence | amount of peptide giving a maximum adipogenic effect [1] [µg] | fat accumulation (dermis of aged rats; 25-50 μg of peptide per injection site, rat dermal skin model) | adipogenic effects in rat skin (dermis of aged rats) | adipogenic effects in pre-adipocyte stem cells in culture (pre-adipocyte stem cells) | adipogenic activity (adipogenesis [2]) | promoting adipogenesis in a nude guinea pig model (nude guinea pig) | adipogenesis in vivo in mammary fat pads [3] | adipogenic activity (adipogenesis [4]; assay not specified) | binding to hyaluronan (HA) [5] | adipogenesis in vivo (adipogenesis in vivo) | binding to hyaluronan (HA) [6] | adipogenesis in tissue culture (adipogenesis [4]; tissue culture)
KLKDENSQLKSEVSK (listed as Homo sapiens) [peptide B] | 1 to 5 | induced significant fat accumulation | adipogenic effects | adipogenic effects | strongly adipogenic | effective in promoting adipogenesis | mammary fat pad enlargement | adipogenic activity |  |  |  | 
STMMSRSHKTRSHHV [peptide P15-1] |  |  | adipogenic effects | adipogenic effects | is adipogenic |  |  |  | hyaluronan binding peptide | promotes adipogenesis | bind to hyaluronan | promotes adipogenesis
